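48-hour exposure; five concentrations; linearly interpolated endpoints. TGI: concentration producing complete growth inhibition.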
Experiments:
Experiment in all cases: DTP human tumour cell line panel, 48 h
UACC-257 melanoma = system: UACC-257 melanoma
SK-MEL-5 melanoma = system: SK-MEL-5 melanoma
BT-549 breast = system: BT-549 breast
SK-OV-3 ovarian = system: SK-OV-3 ovarian
OVCAR-3 ovarian = system: OVCAR-3 ovarian
SNB-75 CNS = system: SNB-75 CNS
LOX IMVI melanoma = system: LOX IMVI melanoma
MDA-N = system: MDA-N
SF-268 CNS = system: SF-268 CNS
HT29 colon = system: HT29 colon
NCI-H23 lung = system: NCI-H23 lung
T-47D breast = system: T-47D breast
HOP-92 NSCLC = system: HOP-92 NSCLC
UO-31 renal = system: UO-31 renal
A549 NSCLC = system: A549 NSCLC
COLO 205 colon = system: COLO 205 colon
K-562 leukemia = system: K-562 leukemia
786-0 renal = system: 786-0 renal
HCT-116 colon = system: HCT-116 colon
NCI-H522 lung = system: NCI-H522 lung
U251 CNS = system: U251 CNS
SR leukemia = system: SR leukemia
SK-MEL-28 melanoma = system: SK-MEL-28 melanoma
NCI/ADR-RES ovarian = system: NCI/ADR-RES ovarian
NCI-H226 lung = system: NCI-H226 lung
OVCAR-4 ovarian = system: OVCAR-4 ovarian
IGROV1 ovarian = system: IGROV1 ovarian
MCF7 breast = system: MCF7 breast
HS 578T breast = system: HS 578T breast
SK-MEL-2 melanoma = system: SK-MEL-2 melanoma
NCI-H460 lung = system: NCI-H460 lung
M14 melanoma = system: M14 melanoma
RPMI-8226 leukemia = system: RPMI-8226 leukemia
PC-3 prostate = system: PC-3 prostate
DU-145 prostate = system: DU-145 prostate
RXF 393 renal = system: RXF 393 renal
MOLT-4 leukemia = system: MOLT-4 leukemia
EKVX NSCLC = system: EKVX NSCLC
SW-620 colon = system: SW-620 colon
OVCAR-5 ovarian = system: OVCAR-5 ovarian
HCC-2998 colon = system: HCC-2998 colon
KM12 colon = system: KM12 colon
UACC-62 melanoma = system: UACC-62 melanoma
HL-60(TB) leukemia = system: HL-60(TB) leukemia
MDA-MB-231 breast = system: MDA-MB-231 breast
TK-10 renal = system: TK-10 renal
SF-539 CNS = system: SF-539 CNS
HOP-62 NSCLC = system: HOP-62 NSCLC
MDA-MB-435 = system: MDA-MB-435
HCT-15 colon = system: HCT-15 colon
CAKI-1 renal = system: CAKI-1 renal
A498 renal = system: A498 renal
CCRF-CEM leukemia = system: CCRF-CEM leukemia
ACHN renal = system: ACHN renal
SN12C renal = system: SN12C renal
OVCAR-8 ovarian = system: OVCAR-8 ovarian
SNB-19 CNS = system: SNB-19 CNS
MALME-3M melanoma = system: MALME-3M melanoma
SF-295 CNS = system: SF-295 CNS

SMILES: Nc1nc(Cl)c(N)c(NCC2(CO)CC(O)C2)n1 (stereo unspecified)
- TGI (UACC-257 melanoma): > 100 µM
- TGI (SK-MEL-5 melanoma): > 100 µM
- TGI (BT-549 breast): > 100 µM
- TGI (SK-OV-3 ovarian): > 100 µM
- TGI (OVCAR-3 ovarian): > 100 µM
- TGI (SNB-75 CNS): > 100 µM
- TGI (LOX IMVI melanoma): > 100 µM
- TGI (MDA-N): > 100 µM
- TGI (SF-268 CNS): > 100 µM
- TGI (HT29 colon): > 100 µM
- TGI (NCI-H23 lung): > 100 µM
- TGI (T-47D breast): > 100 µM
- TGI (HOP-92 NSCLC): > 100 µM
- TGI (UO-31 renal): > 100 µM
- TGI (A549 NSCLC): > 100 µM
- TGI (COLO 205 colon): > 100 µM
- TGI (K-562 leukemia): > 100 µM
- TGI (786-0 renal): > 100 µM
- TGI (HCT-116 colon): > 100 µM
- TGI (NCI-H522 lung): > 100 µM
- TGI (U251 CNS): > 100 µM
- TGI (SR leukemia): > 100 µM
- TGI (SK-MEL-28 melanoma): > 100 µM
- TGI (NCI/ADR-RES ovarian): > 100 µM
- TGI (NCI-H226 lung): > 100 µM
- TGI (OVCAR-4 ovarian): > 100 µM
- TGI (IGROV1 ovarian): > 100 µM
- TGI (MCF7 breast): > 100 µM
- TGI (HS 578T breast): > 100 µM
- TGI (SK-MEL-2 melanoma): > 100 µM
- TGI (NCI-H460 lung): > 100 µM
- TGI (M14 melanoma): > 100 µM
- TGI (RPMI-8226 leukemia): > 100 µM
- TGI (PC-3 prostate): > 100 µM
- TGI (DU-145 prostate): > 100 µM
- TGI (RXF 393 renal): > 100 µM
- TGI (MOLT-4 leukemia): > 100 µM
- TGI (EKVX NSCLC): > 100 µM
- TGI (SW-620 colon): > 100 µM
- TGI (OVCAR-5 ovarian): > 100 µM
- TGI (HCC-2998 colon): > 100 µM
- TGI (KM12 colon): > 100 µM
- TGI (UACC-62 melanoma): > 100 µM
- TGI (HL-60(TB) leukemia): > 100 µM
- TGI (MDA-MB-231 breast): > 100 µM
- TGI (TK-10 renal): > 100 µM
- TGI (SF-539 CNS): > 100 µM
- TGI (HOP-62 NSCLC): > 100 µM
- TGI (MDA-MB-435): > 100 µM
- TGI (HCT-15 colon): > 100 µM
- TGI (CAKI-1 renal): > 100 µM
- TGI (A498 renal): > 100 µM
- TGI (CCRF-CEM leukemia): > 100 µM
- TGI (ACHN renal): > 100 µM
- TGI (SN12C renal): > 100 µM
- TGI (OVCAR-8 ovarian): > 100 µM
- TGI (SNB-19 CNS): > 100 µM
- TGI (MALME-3M melanoma): > 100 µM
- TGI (SF-295 CNS): > 100 µM

SMILES: CC(=O)C(CN1CCOCC1)C(c1ccccc1)c1c(O)c2ccccc2oc1=O (stereo unspecified)
- TGI (UACC-257 melanoma): > 100 µM
- TGI (SK-MEL-5 melanoma): > 100 µM
- TGI (BT-549 breast): > 100 µM
- TGI (SK-OV-3 ovarian): > 100 µM
- TGI (OVCAR-3 ovarian): > 100 µM
- TGI (SNB-75 CNS): > 100 µM
- TGI (LOX IMVI melanoma): > 100 µM
- TGI (MDA-N): > 100 µM
- TGI (SF-268 CNS): > 100 µM
- TGI (HT29 colon): > 100 µM
- TGI (NCI-H23 lung): > 100 µM
- TGI (T-47D breast): > 100 µM
- TGI (HOP-92 NSCLC): > 100 µM
- TGI (UO-31 renal): > 100 µM
- TGI (A549 NSCLC): > 100 µM
- TGI (COLO 205 colon): > 100 µM
- TGI (K-562 leukemia): > 100 µM
- TGI (786-0 renal): > 100 µM
- TGI (HCT-116 colon): > 100 µM
- TGI (NCI-H522 lung): > 100 µM
- TGI (U251 CNS): > 100 µM
- TGI (SR leukemia): > 100 µM
- TGI (SK-MEL-28 melanoma): > 100 µM
- TGI (NCI/ADR-RES ovarian): > 100 µM
- TGI (NCI-H226 lung): > 100 µM
- TGI (OVCAR-4 ovarian): > 100 µM
- TGI (IGROV1 ovarian): > 100 µM
- TGI (MCF7 breast): > 100 µM
- TGI (HS 578T breast): > 100 µM
- TGI (SK-MEL-2 melanoma): > 100 µM
- TGI (NCI-H460 lung): > 100 µM
- TGI (M14 melanoma): > 100 µM
- TGI (RPMI-8226 leukemia): 96.4 µM
- TGI (PC-3 prostate): > 100 µM
- TGI (DU-145 prostate): > 100 µM
- TGI (RXF 393 renal): > 100 µM
- TGI (MOLT-4 leukemia): > 100 µM
- TGI (EKVX NSCLC): > 100 µM
- TGI (SW-620 colon): > 100 µM
- TGI (OVCAR-5 ovarian): > 100 µM
- TGI (HCC-2998 colon): > 100 µM
- TGI (KM12 colon): > 100 µM
- TGI (UACC-62 melanoma): > 100 µM
- TGI (HL-60(TB) leukemia): > 100 µM
- TGI (MDA-MB-231 breast): > 100 µM
- TGI (TK-10 renal): > 100 µM
- TGI (SF-539 CNS): > 100 µM
- TGI (HOP-62 NSCLC): > 100 µM
- TGI (MDA-MB-435): > 100 µM
- TGI (HCT-15 colon): > 100 µM
- TGI (CAKI-1 renal): > 100 µM
- TGI (A498 renal): > 100 µM
- TGI (CCRF-CEM leukemia): > 100 µM
- TGI (ACHN renal): > 100 µM
- TGI (SN12C renal): > 100 µM
- TGI (OVCAR-8 ovarian): > 100 µM
- TGI (SNB-19 CNS): > 100 µM
- TGI (MALME-3M melanoma): > 100 µM
- TGI (SF-295 CNS): > 100 µM

SMILES: Cc1cc2c(cc1-c1cc3c(cc1C)C(C(C)C)=C(O)C(=O)/C3=C\Nc1cccc3c(N)cccc13)/C(=C/Nc1cccc3c(N)cccc13)C(=O)C(O)=C2C(C)C
- TGI (UACC-257 melanoma): > 100 µM
- TGI (SK-MEL-5 melanoma): > 100 µM
- TGI (BT-549 breast): > 100 µM
- TGI (SK-OV-3 ovarian): > 100 µM
- TGI (OVCAR-3 ovarian): > 100 µM
- TGI (SNB-75 CNS): > 100 µM
- TGI (LOX IMVI melanoma): > 100 µM
- TGI (MDA-N): > 100 µM
- TGI (SF-268 CNS): > 100 µM
- TGI (HT29 colon): > 100 µM
- TGI (NCI-H23 lung): > 100 µM
- TGI (T-47D breast): > 100 µM
- TGI (HOP-92 NSCLC): > 100 µM
- TGI (UO-31 renal): > 100 µM
- TGI (A549 NSCLC): > 100 µM
- TGI (COLO 205 colon): > 100 µM
- TGI (K-562 leukemia): > 100 µM
- TGI (786-0 renal): > 100 µM
- TGI (HCT-116 colon): > 100 µM
- TGI (NCI-H522 lung): > 100 µM
- TGI (U251 CNS): > 100 µM
- TGI (SR leukemia): > 100 µM
- TGI (SK-MEL-28 melanoma): > 100 µM
- TGI (NCI/ADR-RES ovarian): > 100 µM
- TGI (NCI-H226 lung): > 100 µM
- TGI (OVCAR-4 ovarian): > 100 µM
- TGI (IGROV1 ovarian): > 100 µM
- TGI (MCF7 breast): > 100 µM
- TGI (HS 578T breast): > 100 µM
- TGI (SK-MEL-2 melanoma): > 100 µM
- TGI (NCI-H460 lung): > 100 µM
- TGI (M14 melanoma): > 100 µM
- TGI (RPMI-8226 leukemia): > 100 µM
- TGI (PC-3 prostate): > 100 µM
- TGI (DU-145 prostate): > 100 µM
- TGI (RXF 393 renal): > 100 µM
- TGI (MOLT-4 leukemia): > 100 µM
- TGI (EKVX NSCLC): > 100 µM
- TGI (SW-620 colon): > 100 µM
- TGI (OVCAR-5 ovarian): > 100 µM
- TGI (HCC-2998 colon): > 100 µM
- TGI (KM12 colon): > 100 µM
- TGI (UACC-62 melanoma): > 100 µM
- TGI (HL-60(TB) leukemia): > 100 µM
- TGI (MDA-MB-231 breast): > 100 µM
- TGI (TK-10 renal): > 100 µM
- TGI (HOP-62 NSCLC): > 100 µM
- TGI (MDA-MB-435): > 100 µM
- TGI (HCT-15 colon): > 100 µM
- TGI (CAKI-1 renal): > 100 µM
- TGI (A498 renal): > 100 µM
- TGI (CCRF-CEM leukemia): > 100 µM
- TGI (ACHN renal): > 100 µM
- TGI (SN12C renal): > 100 µM
- TGI (OVCAR-8 ovarian): > 100 µM
- TGI (SNB-19 CNS): > 100 µM
- TGI (MALME-3M melanoma): > 100 µM
- TGI (SF-295 CNS): > 100 µM
